Data set [1] deals with MK-801-induced schizophrenia model. As to the kind of experiment: MK-801-induced schizophrenia model, open field running behavior. It counts as in vivo, Sprague-Dawley rats. On the procedure:
(I) Modeling of MK-801-Induced Schizophrenia in Mice
Each rat was placed in a soundproof box for 30 minutes on the day before the test to adapt. On the next day, each rat was administrated with the respective test compounds, and after 30 minutes, administrated intraperitoneally with a 0.3 mg/kg MK-801 solution at 5.0 mL/kg body weight of the rat to build a model of MK-801-induced schizophrenia in mice.
(II) Observation of Open Field Running Behavior
Mice were administered with MK-801 and then immediately placed in the soundproof box. The total distances of motion of mice within 2.5 hours were observed and recorded. Improvement rate=(total distance of model control−total distance of administration)/(total distance of model control)×100%. (III) Statistical Method
All the data was expressed with x±SD and processed by SPSS17.0 software statistical package. T-test and one-way analysis of variance were performed to compare the mean of two samples, with P<0.05 as significant difference.

Data set [2] is described as follows: Acute toxicity assay, single oral administration. Particulars: ICR, mouse, in vivo, po. On the procedure: Acute Toxicity Assay of the Cyclohexane Derivatives of the Present Invention
ICR mice orally administered with the compounds of the present invention were evaluated and their toxicity symptoms after oral administration were observed, as well as the mortality, which was calculated by Bliss method, thus the acute toxicities were compared.
• i. Preparation of solvent: Tween-80 of an appropriate amount was diluted with deionized water to a concentration of […] (g/v) Tween-80. • ii. […]. Administration: the test compound and solvent medium control groups (0.5% Tween-80) were administered orally.
Observations include but are not limited to: general condition, behavior, gait, eyes, mouth, nose, gastrointestinal tract, skin and hair and urogenital tract.

The LD50 is the dose expected to kill half of the subjects tested. A lower LD50 goes with greater toxicity. Turning to `CN(C)C(=O)N[C@H]1CC[C@H](CCN2CCN(c3cccc(Cl)c3Cl)CC2)CC1` [Cariprazine, reference compound], the “total distances of the rats within 150 minutes compared with MK-801 model control” value in data set [1] (0.3 mg/kg) was “decreased”. For the same molecule, in data set [1] (dose of 0.3 mg/kg, compared with MK-801 model control), the “inhibition of high spontaneous activity of MK-801-induced rats” value is reported as “significantly inhibited”. Moreover, the “Total Distance within 61-150 minutes” value in data set [1] (single oral administration 0.3 mg/kg, MK-801 0.3 mg/kg i.p., x ± SD) was 168.25 ± 26.9 m. The “Improvement Rate” value in data set [1] (single oral administration 0.3 mg/kg, versus MK-801 model control) came to 45.69%. Besides, the LD50 at 6 days in data set [2] came out at 75.3 mg/kg.

For the origin of these results see US10301277B2, “Substituted ureas and methods of treating mental illness using the same” (ZHEJIANG JINGXIN PHARMACEUTICAL CO., LTD., priority 2016, dated 2019).
